# Data: the kinase profiling compilation of Christmann-Franck et al. (2016)
# Assays:
# Test in all cases: radiometric filter-binding kinase assay, Kinase HotSpot
# Details in all cases: compound 0.5 µM; ATP 10 µM
# ABL2 (human) = ABL2 (human) (UniProt P42684)
# ACVRL1 (human) = ACVRL1 (human) (UniProt P37023)
# CAMK1D (human) = CAMK1D (human) (UniProt Q8IU85)
# CAMK4 (human) = CAMK4 (human) (UniProt Q16566)
# CDK1 CCNB1 (human) = CDK1 CCNB1 (human) (UniProt P06493+P14635)
# CDK9 CCNT1 (human) = CDK9 CCNT1 (human) (UniProt P50750+O60563)
# CHEK1 (human) = CHEK1 (human) (UniProt O14757)
# CHEK2 (human) = CHEK2 (human) (UniProt O96017)
# CSNK2A2 (human) = CSNK2A2 (human) (UniProt P19784)
# DAPK3 (human) = DAPK3 (human) (UniProt O43293)
# DYRK1A (human) = DYRK1A (human) (UniProt Q13627)
# DYRK1B (human) = DYRK1B (human) (UniProt Q9Y463)
# DYRK4 (human) = DYRK4 (human) (UniProt Q9NR20)
# FGR (human) = FGR (human) (UniProt P09769)
# FRK (human) = FRK (human) (UniProt P42685)
# HCK (human) = HCK (human) (UniProt P08631)
# JAK3 JH1 JH2 (human) = JAK3 JH1 JH2 (human) (UniProt P52333)
# KDR (human) = KDR (human) (UniProt P35968)
# LRRK2 (human) = LRRK2 (human) (UniProt Q5S007)
# MAP2K2 (human) = MAP2K2 (human) (UniProt P36507)
# MAP3K11 (human) = MAP3K11 (human) (UniProt Q16584)
# MAP3K3 (human) = MAP3K3 (human) (UniProt Q99759)
# MAP4K2 (human) = MAP4K2 (human) (UniProt Q12851)
# MARK1 (human) = MARK1 (human) (UniProt Q9P0L2)
# MARK2 (human) = MARK2 (human) (UniProt Q7KZI7)
# MINK1 (human) = MINK1 (human) (UniProt Q8N4C8)
# NUAK1 (human) = NUAK1 (human) (UniProt O60285)
# OXSR1 (human) = OXSR1 (human) (UniProt O95747)
# PAK3 (human) = PAK3 (human) (UniProt O75914)
# PAK4 (human) = PAK4 (human) (UniProt O96013)
# PDGFRB (human) = PDGFRB (human) (UniProt P09619)
# PDPK1 (human) = PDPK1 (human) (UniProt O15530)
# PHKG2 (human) = PHKG2 (human) (UniProt P15735)
# PKN2 (human) = PKN2 (human) (UniProt Q16513)
# PRKCA (human) = PRKCA (human) (UniProt P17252)
# PRKCI (human) = PRKCI (human) (UniProt P41743)
# PRKCZ (human) = PRKCZ (human) (UniProt Q05513)
# PTK6 (human) = PTK6 (human) (UniProt Q13882)
# STK11 (human) = STK11 (human) (UniProt Q15831)
# TEK (human) = TEK (human) (UniProt Q02763)
# TTK (human) = TTK (human) (UniProt P33981)
# VRK1 (human) = VRK1 (human) (UniProt Q99986)
# Chain of PRKCZ (human) (Q05513 whole entry, looked up): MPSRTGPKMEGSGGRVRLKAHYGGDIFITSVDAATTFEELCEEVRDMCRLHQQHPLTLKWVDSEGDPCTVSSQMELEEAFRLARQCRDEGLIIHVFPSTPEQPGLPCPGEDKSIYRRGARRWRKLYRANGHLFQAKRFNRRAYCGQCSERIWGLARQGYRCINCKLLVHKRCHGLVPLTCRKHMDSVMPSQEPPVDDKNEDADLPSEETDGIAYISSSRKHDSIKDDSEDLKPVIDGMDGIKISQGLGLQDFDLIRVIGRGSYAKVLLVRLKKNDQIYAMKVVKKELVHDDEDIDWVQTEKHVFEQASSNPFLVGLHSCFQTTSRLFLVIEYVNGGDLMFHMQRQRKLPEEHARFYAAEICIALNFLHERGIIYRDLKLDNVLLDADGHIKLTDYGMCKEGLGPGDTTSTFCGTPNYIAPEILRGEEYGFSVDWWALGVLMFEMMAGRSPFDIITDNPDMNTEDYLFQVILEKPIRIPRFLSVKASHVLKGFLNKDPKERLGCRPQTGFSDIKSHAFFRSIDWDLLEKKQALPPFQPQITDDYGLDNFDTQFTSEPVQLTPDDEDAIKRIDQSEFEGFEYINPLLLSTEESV
# Chain of CAMK4 (human) (Q16566 whole entry, looked up): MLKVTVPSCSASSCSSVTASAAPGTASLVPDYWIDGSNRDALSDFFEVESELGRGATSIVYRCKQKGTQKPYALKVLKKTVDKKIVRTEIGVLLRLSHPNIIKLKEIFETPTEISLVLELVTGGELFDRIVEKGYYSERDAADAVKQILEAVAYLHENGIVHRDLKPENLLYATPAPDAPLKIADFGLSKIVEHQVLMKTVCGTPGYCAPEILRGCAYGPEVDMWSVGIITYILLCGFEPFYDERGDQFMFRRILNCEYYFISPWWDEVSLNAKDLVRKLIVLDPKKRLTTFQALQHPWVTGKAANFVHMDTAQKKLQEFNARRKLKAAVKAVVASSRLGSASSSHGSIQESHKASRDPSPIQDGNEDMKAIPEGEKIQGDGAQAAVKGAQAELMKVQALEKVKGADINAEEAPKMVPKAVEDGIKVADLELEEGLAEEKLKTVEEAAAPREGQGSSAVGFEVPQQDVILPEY
# Chain of MARK2 (human) (Q7KZI7 whole entry, looked up): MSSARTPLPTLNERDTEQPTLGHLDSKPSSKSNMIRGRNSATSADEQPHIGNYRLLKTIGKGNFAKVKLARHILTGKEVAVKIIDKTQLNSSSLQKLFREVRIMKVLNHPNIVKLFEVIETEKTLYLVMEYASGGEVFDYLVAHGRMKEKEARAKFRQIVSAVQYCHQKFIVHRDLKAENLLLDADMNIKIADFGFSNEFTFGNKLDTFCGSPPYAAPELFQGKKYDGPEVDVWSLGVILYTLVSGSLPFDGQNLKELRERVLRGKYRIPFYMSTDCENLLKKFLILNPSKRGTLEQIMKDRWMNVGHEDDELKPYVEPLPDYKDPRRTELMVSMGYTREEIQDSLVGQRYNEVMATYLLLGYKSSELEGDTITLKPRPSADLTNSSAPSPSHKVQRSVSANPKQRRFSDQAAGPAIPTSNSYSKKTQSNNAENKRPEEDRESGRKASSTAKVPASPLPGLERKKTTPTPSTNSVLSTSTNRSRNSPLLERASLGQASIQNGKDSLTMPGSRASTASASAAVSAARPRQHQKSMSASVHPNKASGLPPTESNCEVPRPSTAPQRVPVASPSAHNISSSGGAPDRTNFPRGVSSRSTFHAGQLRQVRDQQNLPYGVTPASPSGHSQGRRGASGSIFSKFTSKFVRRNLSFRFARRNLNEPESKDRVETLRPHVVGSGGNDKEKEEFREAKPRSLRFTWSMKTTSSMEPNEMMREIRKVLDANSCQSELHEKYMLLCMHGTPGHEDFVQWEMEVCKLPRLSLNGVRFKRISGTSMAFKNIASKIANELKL
# Chain of ABL2 (human) (P42684 whole entry, looked up): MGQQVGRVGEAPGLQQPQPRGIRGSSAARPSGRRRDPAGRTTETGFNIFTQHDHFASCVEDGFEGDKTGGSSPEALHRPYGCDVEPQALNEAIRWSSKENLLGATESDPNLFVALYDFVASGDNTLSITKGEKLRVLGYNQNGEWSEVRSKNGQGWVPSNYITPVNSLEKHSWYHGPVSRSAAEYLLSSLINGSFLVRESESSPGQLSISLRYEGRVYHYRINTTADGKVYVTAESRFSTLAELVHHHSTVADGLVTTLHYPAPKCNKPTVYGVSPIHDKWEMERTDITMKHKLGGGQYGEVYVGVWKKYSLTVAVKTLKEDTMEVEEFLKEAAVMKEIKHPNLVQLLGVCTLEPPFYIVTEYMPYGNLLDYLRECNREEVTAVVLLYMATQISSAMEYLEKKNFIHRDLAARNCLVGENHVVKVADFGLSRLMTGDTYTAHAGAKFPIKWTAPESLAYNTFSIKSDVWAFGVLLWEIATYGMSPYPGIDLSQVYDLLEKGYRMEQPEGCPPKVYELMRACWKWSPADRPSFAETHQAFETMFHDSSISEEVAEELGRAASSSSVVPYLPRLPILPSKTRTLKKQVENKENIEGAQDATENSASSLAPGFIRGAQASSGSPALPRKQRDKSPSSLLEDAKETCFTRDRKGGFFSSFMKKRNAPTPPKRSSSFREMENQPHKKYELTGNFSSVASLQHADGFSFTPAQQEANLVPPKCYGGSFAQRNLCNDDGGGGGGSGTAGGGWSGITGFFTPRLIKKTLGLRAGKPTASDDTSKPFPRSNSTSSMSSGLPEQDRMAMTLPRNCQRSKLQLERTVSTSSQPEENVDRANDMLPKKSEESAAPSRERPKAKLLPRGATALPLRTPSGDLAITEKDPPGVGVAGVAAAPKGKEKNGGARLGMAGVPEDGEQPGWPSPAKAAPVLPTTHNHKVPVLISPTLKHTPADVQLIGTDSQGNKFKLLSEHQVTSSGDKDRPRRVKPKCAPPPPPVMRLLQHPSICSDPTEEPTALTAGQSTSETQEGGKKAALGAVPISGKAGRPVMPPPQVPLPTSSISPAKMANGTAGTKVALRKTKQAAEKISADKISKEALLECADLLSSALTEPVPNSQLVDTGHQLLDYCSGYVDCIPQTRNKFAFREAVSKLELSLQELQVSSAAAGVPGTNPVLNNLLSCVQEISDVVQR
# Chain of PDGFRB (human) (P09619 whole entry, looked up): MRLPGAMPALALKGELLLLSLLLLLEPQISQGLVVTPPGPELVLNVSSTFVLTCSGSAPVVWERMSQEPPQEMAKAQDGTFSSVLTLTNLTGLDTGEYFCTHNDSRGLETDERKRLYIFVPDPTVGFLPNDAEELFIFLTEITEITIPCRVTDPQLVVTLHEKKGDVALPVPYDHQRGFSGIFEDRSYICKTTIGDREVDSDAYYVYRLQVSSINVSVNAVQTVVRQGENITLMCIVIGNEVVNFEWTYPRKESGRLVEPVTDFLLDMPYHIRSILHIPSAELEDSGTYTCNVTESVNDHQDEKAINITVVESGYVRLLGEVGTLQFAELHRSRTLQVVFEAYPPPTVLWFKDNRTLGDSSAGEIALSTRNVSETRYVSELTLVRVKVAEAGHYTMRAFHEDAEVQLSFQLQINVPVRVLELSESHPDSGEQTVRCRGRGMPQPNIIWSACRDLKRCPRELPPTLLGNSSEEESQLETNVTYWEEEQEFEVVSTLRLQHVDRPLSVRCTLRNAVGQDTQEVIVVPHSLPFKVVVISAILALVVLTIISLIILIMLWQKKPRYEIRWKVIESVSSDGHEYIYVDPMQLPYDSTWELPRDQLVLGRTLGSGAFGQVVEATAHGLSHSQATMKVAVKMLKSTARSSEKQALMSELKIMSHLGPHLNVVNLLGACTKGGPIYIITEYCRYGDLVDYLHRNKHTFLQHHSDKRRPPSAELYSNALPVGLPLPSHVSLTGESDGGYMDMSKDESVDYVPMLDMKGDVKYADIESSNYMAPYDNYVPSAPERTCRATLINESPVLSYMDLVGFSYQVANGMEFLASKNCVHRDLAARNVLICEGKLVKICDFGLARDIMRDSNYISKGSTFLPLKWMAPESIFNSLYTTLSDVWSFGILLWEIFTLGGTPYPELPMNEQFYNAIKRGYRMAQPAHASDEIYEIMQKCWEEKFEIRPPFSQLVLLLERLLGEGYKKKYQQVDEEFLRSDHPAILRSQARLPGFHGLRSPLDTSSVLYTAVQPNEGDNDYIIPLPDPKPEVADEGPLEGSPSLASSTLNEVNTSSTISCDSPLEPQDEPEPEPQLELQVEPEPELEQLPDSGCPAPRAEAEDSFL
# Chain of FRK (human) (P42685 whole entry, looked up): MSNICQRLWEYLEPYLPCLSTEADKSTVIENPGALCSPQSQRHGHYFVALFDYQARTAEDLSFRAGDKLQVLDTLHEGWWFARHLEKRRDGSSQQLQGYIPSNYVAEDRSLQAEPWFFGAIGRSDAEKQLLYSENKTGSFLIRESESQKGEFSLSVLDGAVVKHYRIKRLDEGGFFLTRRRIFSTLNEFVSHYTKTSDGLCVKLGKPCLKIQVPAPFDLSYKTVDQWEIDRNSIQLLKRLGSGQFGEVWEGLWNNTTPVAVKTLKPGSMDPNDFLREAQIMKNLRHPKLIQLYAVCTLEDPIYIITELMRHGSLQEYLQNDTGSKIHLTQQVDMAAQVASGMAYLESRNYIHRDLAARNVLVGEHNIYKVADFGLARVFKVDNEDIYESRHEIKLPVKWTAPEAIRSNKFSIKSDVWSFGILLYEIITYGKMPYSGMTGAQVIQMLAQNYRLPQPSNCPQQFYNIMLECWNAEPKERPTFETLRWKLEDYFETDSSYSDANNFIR
# Chain of CAMK1D (human) (Q8IU85 whole entry, looked up): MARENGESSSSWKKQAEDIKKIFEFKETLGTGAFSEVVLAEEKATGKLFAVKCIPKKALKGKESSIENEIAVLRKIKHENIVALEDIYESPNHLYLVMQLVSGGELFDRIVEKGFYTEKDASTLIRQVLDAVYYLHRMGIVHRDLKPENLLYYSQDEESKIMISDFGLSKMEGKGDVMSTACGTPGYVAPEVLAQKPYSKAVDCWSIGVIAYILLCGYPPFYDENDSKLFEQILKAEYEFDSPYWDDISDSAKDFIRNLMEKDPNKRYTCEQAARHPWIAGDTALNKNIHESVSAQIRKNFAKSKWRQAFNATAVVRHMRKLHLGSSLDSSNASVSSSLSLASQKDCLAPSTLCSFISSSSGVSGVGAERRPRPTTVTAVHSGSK
smiles,measurement,setting,value
CCN(CC)CCCCN1c2ccccc2Oc2ccc(Cl)cc21,residual activity,ABL2 (human),101%
same,residual activity,ACVRL1 (human),102%
same,residual activity,CAMK1D (human),107%
same,residual activity,CAMK4 (human),98.9%
same,residual activity,CDK1 CCNB1 (human),96.8%
same,residual activity,CDK9 CCNT1 (human),101%
same,residual activity,CHEK1 (human),101%
same,residual activity,CHEK2 (human),105%
same,residual activity,CSNK2A2 (human),94.6%
same,residual activity,DAPK3 (human),106%
same,residual activity,DYRK1A (human),104%
same,residual activity,DYRK1B (human),101%
same,residual activity,DYRK4 (human),100%
same,residual activity,FGR (human),101%
same,residual activity,FRK (human),98.4%
same,residual activity,HCK (human),105%
same,residual activity,JAK3 JH1 JH2 (human),106%
same,residual activity,KDR (human),93.7%
same,residual activity,LRRK2 (human),115%
same,residual activity,MAP2K2 (human),88.4%
same,residual activity,MAP3K11 (human),99.9%
same,residual activity,MAP3K3 (human),103%
same,residual activity,MAP4K2 (human),110%
same,residual activity,MARK1 (human),100%
same,residual activity,MARK2 (human),86.1%
same,residual activity,MINK1 (human),111%
same,residual activity,NUAK1 (human),90.7%
same,residual activity,OXSR1 (human),89.8%
same,residual activity,PAK3 (human),116%
same,residual activity,PAK4 (human),104%
same,residual activity,PDGFRB (human),103%
same,residual activity,PDPK1 (human),111%
same,residual activity,PHKG2 (human),110%
same,residual activity,PKN2 (human),72.4%
same,residual activity,PRKCA (human),83%
same,residual activity,PRKCI (human),105%
same,residual activity,PRKCZ (human),105%
same,residual activity,PTK6 (human),95%
same,residual activity,STK11 (human),94.4%
same,residual activity,TEK (human),103%
same,residual activity,TTK (human),104%
same,residual activity,VRK1 (human),101%
O=C1Nc2ccccc2/C1=C1/Nc2ccccc2/C1=N\OCCC(O)CO (stereo not drawn),residual activity,ABL2 (human),38.5%
same,residual activity,ACVRL1 (human),103%
same,residual activity,CAMK1D (human),80.3%
same,residual activity,CAMK4 (human),93.6%
same,residual activity,CDK1 CCNB1 (human),33.4%
same,residual activity,CDK9 CCNT1 (human),52.5%
same,residual activity,CHEK1 (human),67%
same,residual activity,CHEK2 (human),27%
same,residual activity,CSNK2A2 (human),28.3%
same,residual activity,DAPK3 (human),66.6%
same,residual activity,DYRK1A (human),82.8%
same,residual activity,DYRK1B (human),65.1%
same,residual activity,DYRK4 (human),100%
same,residual activity,FGR (human),11.6%
same,residual activity,FRK (human),49.7%
same,residual activity,HCK (human),23%
same,residual activity,JAK3 JH1 JH2 (human),16.9%
same,residual activity,KDR (human),56.4%
same,residual activity,LRRK2 (human),81.2%
same,residual activity,MAP2K2 (human),86.5%
same,residual activity,MAP3K11 (human),10.5%
same,residual activity,MAP3K3 (human),87.8%
same,residual activity,MAP4K2 (human),51.7%
same,residual activity,MARK1 (human),60.5%
same,residual activity,MARK2 (human),57.4%
same,residual activity,MINK1 (human),21%
same,residual activity,NUAK1 (human),2.81%
same,residual activity,OXSR1 (human),98.6%
same,residual activity,PAK3 (human),73.8%
same,residual activity,PAK4 (human),84.5%
same,residual activity,PDGFRB (human),42.8%
same,residual activity,PDPK1 (human),83.3%
same,residual activity,PHKG2 (human),34.9%
same,residual activity,PKN2 (human),90.1%
same,residual activity,PRKCA (human),101%
same,residual activity,PRKCI (human),100%
same,residual activity,PRKCZ (human),98.5%
same,residual activity,PTK6 (human),73.3%
same,residual activity,STK11 (human),5.77%
same,residual activity,TEK (human),101%
same,residual activity,TTK (human),46.1%
same,residual activity,VRK1 (human),88.3%
CN(C)C[C@H]1CCn2c(c(C3=C(c4cn(C)c5ccccc45)C(=O)NC3=O)c3ccccc32)C1,residual activity,ABL2 (human),96.3%
same,residual activity,ACVRL1 (human),98.5%
same,residual activity,CAMK1D (human),101%
same,residual activity,CAMK4 (human),95.5%
same,residual activity,CDK1 CCNB1 (human),53.7%
same,residual activity,CDK9 CCNT1 (human),39.6%
same,residual activity,CHEK1 (human),69.8%
same,residual activity,CHEK2 (human),95%
same,residual activity,CSNK2A2 (human),92.4%
same,residual activity,DAPK3 (human),95.2%
same,residual activity,DYRK1A (human),88.7%
same,residual activity,DYRK1B (human),92.2%
same,residual activity,DYRK4 (human),98.9%
same,residual activity,FGR (human),97.2%
same,residual activity,FRK (human),103%
same,residual activity,HCK (human),95.3%
same,residual activity,JAK3 JH1 JH2 (human),89.4%
same,residual activity,KDR (human),101%
same,residual activity,LRRK2 (human),93.1%
same,residual activity,MAP2K2 (human),101%
same,residual activity,MAP3K11 (human),95.2%
same,residual activity,MAP3K3 (human),86.1%
same,residual activity,MAP4K2 (human),99%
same,residual activity,MARK1 (human),92.8%
same,residual activity,MARK2 (human),94.9%
same,residual activity,MINK1 (human),97.8%
same,residual activity,NUAK1 (human),90.9%
same,residual activity,OXSR1 (human),98.4%
same,residual activity,PAK3 (human),102%
same,residual activity,PAK4 (human),104%
same,residual activity,PDGFRB (human),102%
same,residual activity,PDPK1 (human),97%
same,residual activity,PHKG2 (human),104%
same,residual activity,PKN2 (human),87%
same,residual activity,PRKCA (human),2.58%
same,residual activity,PRKCI (human),36.2%
same,residual activity,PRKCZ (human),31%
same,residual activity,PTK6 (human),90.4%
same,residual activity,STK11 (human),91.9%
same,residual activity,TEK (human),98.4%
same,residual activity,TTK (human),105%
same,residual activity,VRK1 (human),105%
CC(C)c1nn(-c2c(Cl)cccc2Cl)c2nc(Cc3ccc(OCCO)cc3)nc(O)c12,residual activity,ABL2 (human),96.3%
same,residual activity,ACVRL1 (human),103%
same,residual activity,CAMK1D (human),102%
same,residual activity,CAMK4 (human),102%
same,residual activity,CDK1 CCNB1 (human),-1.2%
same,residual activity,CDK9 CCNT1 (human),22.7%
same,residual activity,CHEK1 (human),96.2%
same,residual activity,CHEK2 (human),98.8%
same,residual activity,CSNK2A2 (human),92.2%
same,residual activity,DAPK3 (human),104%
same,residual activity,DYRK1A (human),105%
same,residual activity,DYRK1B (human),99.9%
same,residual activity,DYRK4 (human),96.7%
same,residual activity,FGR (human),92%
same,residual activity,FRK (human),89.6%
same,residual activity,HCK (human),94.7%
same,residual activity,JAK3 JH1 JH2 (human),103%
same,residual activity,KDR (human),105%
same,residual activity,LRRK2 (human),109%
same,residual activity,MAP2K2 (human),98.5%
same,residual activity,MAP3K11 (human),101%
same,residual activity,MAP3K3 (human),110%
same,residual activity,MAP4K2 (human),106%
same,residual activity,MARK1 (human),93.3%
same,residual activity,MARK2 (human),88%
same,residual activity,MINK1 (human),97.1%
same,residual activity,NUAK1 (human),96.9%
same,residual activity,OXSR1 (human),93.8%
same,residual activity,PAK3 (human),94.8%
same,residual activity,PAK4 (human),106%
same,residual activity,PDGFRB (human),98.9%
same,residual activity,PDPK1 (human),94.9%
same,residual activity,PHKG2 (human),102%
same,residual activity,PKN2 (human),97.5%
same,residual activity,PRKCA (human),89.9%
same,residual activity,PRKCI (human),95.2%
same,residual activity,PRKCZ (human),96.9%
same,residual activity,PTK6 (human),87.1%
same,residual activity,STK11 (human),47.7%
same,residual activity,TEK (human),100%
same,residual activity,TTK (human),101%
same,residual activity,VRK1 (human),103%
